Structures are written as SMILES. Values joined by “and” are separate entries in the source; they are usually repeats but may differ in a detail not shown here. Equal entries are not always repeated.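 How tested: cells in 96-well plates exposed to compound for 48 hours at five concentrations. At the GI50, growth is halved. TGI: concentration producing complete growth inhibition.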

From PubChem BioAssay (NCI) come the findings set out here.

Common to all, as to test: NCI tumour cell line growth inhibition, 48 h
The subject of experiment [1] is K-562 leukemia.
Experiment [2] has as its system HL-60(TB) leukemia.
Experiment [3] has as its system UACC-257 melanoma.
The subject of experiment [4] is OVCAR-5 ovarian.
Experiment [5] relates to PC-3 prostate.
For experiment [6], the system named is MOLT-4 leukemia.
The subject of experiment [7] is NCI-H226 lung.
Experiment [8] deals with NCI-H23 lung.
For experiment [9], the system named is NCI/ADR-RES ovarian.
For experiment [10], the system named is A498 renal.

Regarding `C/C(=C\CNc1ncnc2nc(Cl)[nH]c12)CO`, the TGI in experiment [1], in [2], in experiment [3], in [4], in [5] and in experiment [6] was more than 100 µM in each case. The TGI in experiment [7], in [8], in experiment [9] and in experiment [10] was more than 100 µM in each case.
Turning to `O=P(O)(O)OP(=O)(O)O`, the TGI in experiment [1], in experiment [2], in experiment [3], in experiment [4], in experiment [5] and in experiment [6] was more than 100 µM throughout. The TGI in experiment [8], in experiment [9] and in experiment [10] was more than 100 µM each time.
In the case of `COC(=O)c1c(O)ccc2c1c1c(n2Cc2ccccn2)C(=O)c2ccccc2C1`, the TGI in experiment [1] is more than 100 µM; in [2], more than 100 µM; in [3] it was more than 100 µM; in [4] it was more than 100 µM; in experiment [5], 90.2 µM; in experiment [6], more than 100 µM. In addition, the TGI in [7], in experiment [8], in experiment [9] and in experiment [10] was more than 100 µM throughout.
As to `Fc1cc(C2=C[C@H](c3ccc4c(c3)OCO4)NC(=S)N2)c(Cl)cc1Cl`, the TGI in experiment [1] is more than 100 µM; in [2], 0.23 µM; in experiment [3], 83.6 µM; in [4], more than 100 µM; in experiment [5] it was 85.8 µM; in experiment [6], more than 100 µM. Also, the TGI in experiment [7] was more than 100 µM; in experiment [8], more than 100 µM; in experiment [9], more than 100 µM; in [10], 79 µM.
`Clc1ccc(NCc2nnc(COc3ccc(OCc4nnc(CNc5ccc(Cl)cc5)o4)c(Cl)c3)o2)cc1`: the TGI in experiment [2] is 27 µM; in experiment [3], more than 100 µM; in [4] it was more than 100 µM; in [5], more than 100 µM; in experiment [7], more than 100 µM; in [8] it was more than 100 µM. The TGI in experiment [9] was 68.5 µM; in [10], more than 100 µM.
`CCOC(=O)C(C)OC(=O)c1ccc(C)cc1` (stereo unspecified): the TGI in experiment [1], in experiment [2], in [3], in experiment [4], in experiment [6] and in experiment [8] was more than 100 µM each time. The compound also came in with a TGI in [10] of more than 100 µM.
Turning to `CN(C)C/C=C(/c1ccc(Br)cc1)c1cccnc1`, the TGI in experiment [1] is more than 100 µM; in [2] it was 0.0516 µM; in experiment [3] it was 35.3 µM; in experiment [4], more than 100 µM; in experiment [5], more than 100 µM; in experiment [6], more than 100 µM. The TGI in [7] was more than 100 µM; in experiment [8], more than 100 µM; in experiment [9], more than 100 µM; in [10], 57.8 µM.
Regarding `CCCCCCOC(=O)C(N)Cc1ccc(OC)cc1` (stereo unspecified), the TGI in experiment [1], in [2], in experiment [3], in experiment [4], in [5] and in [6] was more than 100 µM in each case. For the same compound, the TGI in experiment [7], in experiment [8] and in [9] was more than 100 µM each time.
`O=C(N/N=C\c1ccc([N+](=O)[O-])cc1)Nc1ccccc1`: the TGI in experiment [1], in experiment [2], in [3], in experiment [4], in experiment [5] and in experiment [6] was more than 100 µM in each case. Further, the TGI in [7], in experiment [8], in experiment [9] and in experiment [10] was more than 100 µM each time.
Consider `NC(CCc1ccccc1)(C(=O)O)c1ccccc1` (stereo unspecified), for which the TGI in [1], in [3], in [4], in experiment [5], in experiment [6] and in experiment [7] was more than 100 µM each time. Further, the TGI in [8], in [9] and in experiment [10] was more than 100 µM throughout.
As for `O=c1oc2c(ccc3occc32)c(N2CCCCC2)c1-c1ccccc1`, the TGI in [1] was more than 100 µM; in experiment [2], 80.1 µM; in [4], more than 100 µM; in experiment [6], more than 31.7 µM; in [7] it was more than 100 µM; in experiment [8], more than 100 µM. Moreover, the TGI in experiment [9] and in experiment [10] was more than 100 µM in each case. In addition, the GI50 in experiment [7] was more than 100 µM.
For the compound `C[C@H](Nc1ccc(C#N)n(C)c1=O)c1cc2cc(Cl)ccc2[nH]c1=O`, the GI50 was 27.1 µM in experiment [1]; 22.4 µM in [2]; 32.6 µM in experiment [3]; 66.6 µM in experiment [4]; 13.3 µM in experiment [5]; 18.6 µM in [6]. For the same compound, the GI50 was 23.4 µM in experiment [7], 35.4 µM in experiment [8], 26.1 µM in [9] and 20.4 µM in experiment [10]. Moreover, the TGI was more than 100 µM in [1]; 58.5 µM in experiment [2]; more than 100 µM in [3]; more than 100 µM in experiment [4]; 83.5 µM in [5]; 64.1 µM in [6]. Also, the TGI in experiment [7] was more than 100 µM; in experiment [8] it was more than 100 µM; in [9], more than 100 µM; in [10], 92.2 µM.
Take `CC(Br)C(=O)c1ccc2cc(Br)c3ccccc3c2c1` (stereo unspecified): the TGI in experiment [1] was 42.9 µM; in [2] it was 37.5 µM; in experiment [3], 31.5 µM; in experiment [4] it was 31.4 µM; in experiment [8] it was 29.7 µM; in experiment [9], 35 µM. This compound also gave a TGI in experiment [10] of 33.1 µM.
Regarding `NCCCCN`, the TGI in [1], in [2], in [3], in [4], in experiment [5] and in experiment [6] was more than 100 µM each time. Also, the TGI in [7], in experiment [8], in [9] and in experiment [10] was more than 100 µM each time.
Regarding `CCOC(=O)C(=CNC(Cc1c[nH]c2ccccc12)C(=O)OC)C(=O)OCC` (stereo unspecified), the TGI in experiment [1], in experiment [2], in [6], in [7], in [8] and in [10] was more than 100 µM each time.
Consider `CC(C)(C)c1ccc(O)c(Br)c1`, for which the TGI in experiment [1], in [2], in [3], in experiment [4], in [5] and in experiment [6] was more than 100 µM each time. Moreover, the TGI in experiment [7], in experiment [8], in [9] and in experiment [10] was more than 100 µM throughout.
As to `CC(C)(C)OC(=O)N1C(C2=COc3ccccc3O2)=COc2cccnc21`, the TGI came out at 5.33 µM in [1]; 3.92 µM in experiment [3]; 3.4 µM in experiment [4]; 6.04 µM in experiment [5]; 7 µM in experiment [6]; 4.31 µM in [7]. The TGI in experiment [8] is 3.25 µM; in [9], 4.7 µM; in [10] it was 3.32 µM.
`O=C(CSc1nc2ccc(Cl)cc2c(=O)n1-c1ccccc1)N=Nc1c(O)[nH]c2ccc(F)cc12`: the TGI in experiment [1] came out at 11.3 µM; in [2] it was 7.25 µM; in experiment [3] it was 10.6 µM; in experiment [4], 9.01 µM; in experiment [5], 6.82 µM; in experiment [6] it was 5.56 µM. In addition, the TGI in experiment [7] amounted to 12.6 µM; in experiment [8], 7.57 µM; in experiment [9], 8.44 µM; in experiment [10] it was 9.8 µM.
With `Cc1cc(N2CCOCC2)nc(N(CCCNc2ccnc3cc(Cl)ccc23)Cc2ccc3c(c2)OCO3)n1`, the GI50 in [1] was 0.436 µM; in [3] it was 1.99 µM; in experiment [5], 1.62 µM; in experiment [6], 0.598 µM; in [10], 1.51 µM. For the same compound, the TGI was determined as 2.42 µM in experiment [1]; 3.48 µM in experiment [3]; 3.24 µM in experiment [5]; 2.97 µM in experiment [6]; 3.42 µM in experiment [10].
Take `Cc1cc(O)c2c(c1O)C(=O)c1c(O)ccc(O)c1C2=O`: the TGI in experiment [1], in experiment [2], in [3], in experiment [4], in experiment [5] and in experiment [6] was more than 100 µM in each case. For the same compound, the TGI in [7], in experiment [8], in experiment [9] and in experiment [10] was more than 100 µM each time.
For the compound `NC(N)=NS(=O)(=O)c1ccc(Nc2c3ccccc3nc3c(C(=O)N4CCN(CCO)CC4)ccc(Cl)c23)cc1`, the TGI in [1], in experiment [2], in experiment [3], in experiment [4], in experiment [6] and in experiment [7] was more than 100 µM throughout. The TGI in [8] and in [10] was more than 100 µM each time.
Turning to `COC1OC(C(=O)CP(=O)(OC)OC)C(OCc2ccccc2)C(OCc2ccccc2)C1OCc1ccccc1` (stereo unspecified), the TGI was 63.1 µM and > 100 µM in experiment [1]; 59.4 µM and 47 µM in [2]; 29.3 µM and 30.1 µM in [3]; 29.2 µM and 31.8 µM in experiment [4]; 28.1 µM and 28.7 µM in [5]; 32.7 µM and 50.3 µM in [6]. Further, the TGI in experiment [7] is 39.5 µM and 35.1 µM; in experiment [8], 30.3 µM and 32.9 µM; in [9], 42.6 µM and 46 µM; in experiment [10] it was 27.1 µM.
